Data reported in ChEMBL document CHEMBL4376829, “Discovery and biological evaluation of vinylsulfonamide derivatives as highly potent, covalent TEAD autopalmitoylation inhibitors” (Eur J Med Chem, 2019).
Calls of active or inactive are those of the source. The calls are words filed in the database; no cut-off is given here.

What was measured:
[1] = molecular target: Proto-oncogene tyrosine-protein kinase Src (Homo sapiens) (UniProt P12931); test: Inhibition of recombinant full length human cSRC at 10 uM using KVEKIGEGTYGVVYK as substrate measured after 40 mins in presence of [gamma33P]ATP by scintillation counting method relative to control
[2] = molecular target: Serine/threonine-protein kinase 38-like (Homo sapiens) (UniProt Q9Y2H1); test: Inhibition of recombinant human NDR2 (83 to end residues) at 10 uM using RSRSRSRSRSRSRSR as substrate measured after 40 mins in presence of [gamma33P]ATP by scintillation counting method relative to control
[3] = molecular target: Tyrosine-protein kinase Lck (Homo sapiens) (UniProt P06239); test: Inhibition of recombinant full-length human LCK at 10 uM using KVEKIGEGTYGVVYK as substrate measured after 40 mins in presence of [gamm33P]ATP by scintillation counting method relative to control
[4] = molecular target: Serine/threonine-protein kinase Chk2 (Homo sapiens) (UniProt O96017); test: Inhibition of recombinant human CHK2 (5 to end residues) at 10 uM using KKKVSRSGLYRSPSMPENLNRPR as substrate measured after 40 mins in presence of [gamma33P]ATP by scintillation counting method relative to control
[5] = molecular target: Serine/threonine-protein kinase 17A (Homo sapiens) (UniProt Q9UEE5); test: Inhibition of full-length recombinant human DRAK1 at 10 uM using KKLNRTLSFAEPG as substrate after 40 mins by in presence of [gamma33P]ATP by scintillation counting method relative to control
Homo sapiens [6] = organism: Homo sapiens; test: Inhibition of recombinant full-length human PI3K p120gamma R459Q mutant at 10 uM using phosphatidylinositol-4, 5-bisphosphate as substrate measured after 40 mins by fluorescence assay relative to control
[7] = molecular target: T1, Transcriptional enhancer factor TEF-3 (Homo sapiens, UniProt Q15561); test: Inhibition of FITC-labeled YAP peptide (61 to 100 residues) binding to TEAD4 (unknown origin) preincubated for 1 hr followed by FITC-labeled YAP peptide addition and measured after 30 mins by fluorescence polarization assay
[8] = system: RAF proto-oncogene serine/threonine-protein kinase (Homo sapiens), P04049 [Y340D,Y341D]; test: Inhibition of recombinant human c-RAF Y340D/Y341D mutant (360 to end residues) at 10 uM using inactive MEK1 as substrate measured after 40 mins in presence of [gamma33P]ATP by scintillation counting method relative to control
[9] = molecular target: Myosin light chain kinase, smooth muscle (Homo sapiens) (UniProt Q15746); test: Inhibition of recombinant human MLCK (1425 to 1771 residues) at 10 uM using […] as substrate measured after 40 mins in presence of [gamma33P]ATP by scintillation counting method relative to control
[10] = molecular target: T1, Transcriptional enhancer factor TEF-3; test: Binding affinity to Flag-tagged TEAD4 (unknown origin) expressed in HEK293T cells assessed as modification in Cys367 residue at 50 uM after 4 hrs by MS analysis; type: cell-based
[11] = molecular target: Serine/threonine-protein kinase 17B (Homo sapiens) (UniProt O94768); test: Inhibition of full-length recombinant human DRAK2 at 10 uM using KKRPQRRYSNVF as substrate after 120 mins by in presence of [gamma33P]ATP by scintillation counting method relative to control
[12] = molecular target: Mitogen-activated protein kinase kinase kinase 5 (Homo sapiens) (UniProt Q99683); test: Inhibition of recombinant human ASK1 (649 to 946 residues) at 10 uM using myelin basic protein as substrate measured after 40 mins in presence of [gamma33P]ATP by scintillation counting method relative to control
[13] = molecular target: CDK2/Cyclin A2 (Homo sapiens) (UniProt P24941+P20248); test: Inhibition of recombinant full-length human CDK2/cyclinA at 10 uM using histone H1 as substrate measured after 40 mins in presence of [gamma33P]ATP by scintillation counting method relative to control; type: protein-complex assay
[14] = system: Glycogen synthase kinase-3 beta (Homo sapiens), P49841 [UNDEFINED MUTATION]; test: Inhibition of recombinant human GSK3beta H350L mutant (2 to end residues) at 10 uM using phospho GS2 peptide as substrate measured after 40 mins in presence of [gamma33P]ATP by scintillation counting method relative to control
Saccharomyces cerevisiae = test: Inhibition of recombinant fungi CK1 (2 to 298 residues) at 10 uM using KRRRALS(p)VAS as substrate incubated for 40 mins in presence of [gamma-33P]-ATP by scintillation counting method relative to control
[15] = molecular target: LIM domain kinase 2 (Homo sapiens) (UniProt P53671); test: Inhibition of human LIMK2 at 10 uM by radiometric assay relative to control
[16] = molecular target: Proto-oncogene tyrosine-protein kinase Src (Homo sapiens) (UniProt P12931); test: Inhibition of recombinant human Src (1 to 530 residues) at 10 uM using GGEEEEYFELVKKKK as substrate measured after 40 mins in presence of [gamma33P]ATP by scintillation counting method relative to control
[17] = molecular target: ALK tyrosine kinase receptor (Homo sapiens) (UniProt Q9UM73); test: Inhibition of recombinant human ALK (1058 to end residues) at 10 uM using KKKSPGEYVNIEF as substrate after 40 mins in presence of [gamma33P]ATP by scintillation counting method relative to control
[18] = system: Angiopoietin-1 receptor (Homo sapiens), Q02763 [Q939H,Q940H]; test: Inhibition of human Tie2 Q939H/Q940H mutant (771 to end residues) at 10 uM using poly(Glu, Tyr) 4:1 as substrate measured after 40 mins in presence of [gamma33P]ATP by scintillation counting method relative to control
[19] = molecular target: Serine-protein kinase ATM (Homo sapiens) (UniProt Q13315); test: Inhibition of recombinant full-length human ATM at 10 uM using GST-cMyc-p53 as substrate measured after 40 mins by EIA method relative to control
[20] = molecular target: Tyrosine-protein kinase JAK3 (Homo sapiens) (UniProt P52333); test: Inhibition of recombinant human JAK3 (781 to end residues) at 10 uM using GGEEEEYFELVKKKK as substrate measured after 40 mins in presence of [gamm33P]ATP by scintillation counting method relative to control
[21] = molecular target: Epidermal growth factor receptor (Homo sapiens) (UniProt P00533); test: Inhibition of recombinant human EGFR (696 to end residues) at 10 uM using poly(Glu, Tyr) as substrate measured after 40 mins in presence of [gamma33P]ATP by scintillation counting method relative to control
Homo sapiens [22] = organism: Homo sapiens; test: Inhibition of recombinant full-length human ATRIP/ATR M211T mutant at 10 uM using GST-cMyc-p53 as substrate measured after 40 mins by fluorescence assay relative to control
[23] = molecular target: Ribosomal protein S6 kinase alpha-2 (Homo sapiens) (UniProt Q15349); test: Inhibition of full length recombinant human Rsk3 at 10 uM using KKKNRTLSVA as substrate after 40 mins in presence of [gamma33P]ATP by scintillation counting method relative to control

Chain of Proto-oncogene tyrosine-protein kinase Src (Homo sapiens) (P12931 2-536 limits assumed): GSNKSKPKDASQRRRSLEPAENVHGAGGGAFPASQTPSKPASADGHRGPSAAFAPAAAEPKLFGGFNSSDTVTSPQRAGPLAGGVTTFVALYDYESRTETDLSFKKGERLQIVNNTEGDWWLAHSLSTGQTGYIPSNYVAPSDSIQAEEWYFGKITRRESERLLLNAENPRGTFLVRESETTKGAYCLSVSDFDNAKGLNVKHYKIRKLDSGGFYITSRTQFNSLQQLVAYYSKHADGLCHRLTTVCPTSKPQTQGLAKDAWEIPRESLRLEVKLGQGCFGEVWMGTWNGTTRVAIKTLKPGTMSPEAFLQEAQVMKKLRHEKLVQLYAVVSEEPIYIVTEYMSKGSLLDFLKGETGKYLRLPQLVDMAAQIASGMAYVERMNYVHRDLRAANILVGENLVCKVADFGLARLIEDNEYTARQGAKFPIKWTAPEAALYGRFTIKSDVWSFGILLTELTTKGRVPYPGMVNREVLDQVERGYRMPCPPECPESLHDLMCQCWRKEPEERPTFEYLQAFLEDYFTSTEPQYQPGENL
T1 sequence (Q15561 whole entry, the tested form may be a part): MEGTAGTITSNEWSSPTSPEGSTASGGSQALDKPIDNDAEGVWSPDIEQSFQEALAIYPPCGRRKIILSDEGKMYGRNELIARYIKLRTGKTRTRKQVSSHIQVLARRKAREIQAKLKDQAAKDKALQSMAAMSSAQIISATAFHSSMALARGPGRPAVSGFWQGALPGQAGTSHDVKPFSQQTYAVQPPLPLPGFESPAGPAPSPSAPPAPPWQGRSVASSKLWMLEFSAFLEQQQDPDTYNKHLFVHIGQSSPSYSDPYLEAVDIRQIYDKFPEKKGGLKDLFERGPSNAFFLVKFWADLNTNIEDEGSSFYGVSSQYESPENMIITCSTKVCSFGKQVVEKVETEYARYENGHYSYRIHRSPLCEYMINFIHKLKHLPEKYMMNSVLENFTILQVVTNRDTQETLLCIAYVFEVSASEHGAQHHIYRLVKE
Chain of Serine/threonine-protein kinase Chk2 (Homo sapiens) (O96017 whole entry): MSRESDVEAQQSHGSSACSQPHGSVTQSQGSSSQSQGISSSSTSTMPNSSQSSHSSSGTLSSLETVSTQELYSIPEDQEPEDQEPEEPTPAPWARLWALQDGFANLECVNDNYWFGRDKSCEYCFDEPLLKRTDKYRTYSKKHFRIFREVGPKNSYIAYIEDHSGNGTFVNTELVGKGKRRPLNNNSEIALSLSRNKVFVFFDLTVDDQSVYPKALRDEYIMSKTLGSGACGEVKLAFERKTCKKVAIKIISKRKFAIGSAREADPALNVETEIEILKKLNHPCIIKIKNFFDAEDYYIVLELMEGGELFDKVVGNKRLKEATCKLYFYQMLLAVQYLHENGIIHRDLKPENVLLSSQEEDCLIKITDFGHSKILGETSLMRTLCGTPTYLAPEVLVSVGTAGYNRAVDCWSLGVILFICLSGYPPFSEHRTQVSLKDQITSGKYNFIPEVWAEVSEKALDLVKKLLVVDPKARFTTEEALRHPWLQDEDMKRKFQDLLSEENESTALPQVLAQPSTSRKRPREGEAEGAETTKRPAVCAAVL
Chain of Serine/threonine-protein kinase 17A (Homo sapiens) (Q9UEE5 whole entry): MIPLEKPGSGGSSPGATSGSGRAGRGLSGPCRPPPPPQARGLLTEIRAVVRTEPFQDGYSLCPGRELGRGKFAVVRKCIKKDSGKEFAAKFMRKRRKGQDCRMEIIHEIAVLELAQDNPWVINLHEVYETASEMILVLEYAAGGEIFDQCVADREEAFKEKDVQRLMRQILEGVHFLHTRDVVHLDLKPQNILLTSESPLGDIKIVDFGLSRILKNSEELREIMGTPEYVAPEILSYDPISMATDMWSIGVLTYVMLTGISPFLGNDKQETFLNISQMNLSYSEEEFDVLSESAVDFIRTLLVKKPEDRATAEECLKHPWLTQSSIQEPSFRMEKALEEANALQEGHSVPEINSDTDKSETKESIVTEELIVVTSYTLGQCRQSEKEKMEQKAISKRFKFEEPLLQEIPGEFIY
Chain of RAF proto-oncogene serine/threonine-protein kinase (Homo sapiens), P04049 [Y340D,Y341D] (P04049 whole entry Y340D/Y341D, the tested form may be a part): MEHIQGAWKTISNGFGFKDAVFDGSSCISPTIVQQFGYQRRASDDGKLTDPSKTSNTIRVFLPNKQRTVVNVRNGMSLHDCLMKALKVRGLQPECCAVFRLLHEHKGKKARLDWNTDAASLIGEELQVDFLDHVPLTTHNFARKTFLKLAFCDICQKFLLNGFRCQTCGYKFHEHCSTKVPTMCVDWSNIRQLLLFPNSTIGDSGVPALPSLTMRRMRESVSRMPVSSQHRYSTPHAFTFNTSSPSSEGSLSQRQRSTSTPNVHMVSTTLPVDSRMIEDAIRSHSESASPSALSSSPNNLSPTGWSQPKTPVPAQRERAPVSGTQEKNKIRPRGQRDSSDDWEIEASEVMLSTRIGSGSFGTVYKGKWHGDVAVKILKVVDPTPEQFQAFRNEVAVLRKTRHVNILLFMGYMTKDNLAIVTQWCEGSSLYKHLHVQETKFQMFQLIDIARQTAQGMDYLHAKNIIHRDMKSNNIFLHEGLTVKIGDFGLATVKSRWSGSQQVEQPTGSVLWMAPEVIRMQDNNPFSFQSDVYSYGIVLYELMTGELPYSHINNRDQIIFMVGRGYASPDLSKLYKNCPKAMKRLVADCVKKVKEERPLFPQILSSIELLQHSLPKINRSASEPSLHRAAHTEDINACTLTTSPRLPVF
Chain of LIM domain kinase 2 (Homo sapiens) (P53671 whole entry, looked up, the tested form may be a part): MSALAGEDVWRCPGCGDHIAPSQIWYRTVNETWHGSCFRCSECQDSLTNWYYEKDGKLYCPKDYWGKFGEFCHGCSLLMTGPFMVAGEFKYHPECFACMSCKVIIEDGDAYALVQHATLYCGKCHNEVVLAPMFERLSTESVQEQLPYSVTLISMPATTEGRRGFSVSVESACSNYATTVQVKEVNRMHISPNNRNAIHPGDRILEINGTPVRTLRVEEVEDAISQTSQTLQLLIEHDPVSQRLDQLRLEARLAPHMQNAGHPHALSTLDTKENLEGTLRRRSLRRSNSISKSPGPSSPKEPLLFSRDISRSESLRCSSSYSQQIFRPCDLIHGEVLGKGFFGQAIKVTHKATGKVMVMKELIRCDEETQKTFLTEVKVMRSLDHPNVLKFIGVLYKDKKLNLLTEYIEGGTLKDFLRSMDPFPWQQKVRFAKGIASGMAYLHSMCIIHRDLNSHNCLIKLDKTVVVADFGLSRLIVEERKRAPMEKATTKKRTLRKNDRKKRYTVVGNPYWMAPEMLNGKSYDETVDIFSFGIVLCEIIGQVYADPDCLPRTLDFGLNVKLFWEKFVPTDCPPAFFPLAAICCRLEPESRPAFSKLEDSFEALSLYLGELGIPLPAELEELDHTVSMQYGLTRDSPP
Chain of Epidermal growth factor receptor (Homo sapiens) (P00533 whole entry): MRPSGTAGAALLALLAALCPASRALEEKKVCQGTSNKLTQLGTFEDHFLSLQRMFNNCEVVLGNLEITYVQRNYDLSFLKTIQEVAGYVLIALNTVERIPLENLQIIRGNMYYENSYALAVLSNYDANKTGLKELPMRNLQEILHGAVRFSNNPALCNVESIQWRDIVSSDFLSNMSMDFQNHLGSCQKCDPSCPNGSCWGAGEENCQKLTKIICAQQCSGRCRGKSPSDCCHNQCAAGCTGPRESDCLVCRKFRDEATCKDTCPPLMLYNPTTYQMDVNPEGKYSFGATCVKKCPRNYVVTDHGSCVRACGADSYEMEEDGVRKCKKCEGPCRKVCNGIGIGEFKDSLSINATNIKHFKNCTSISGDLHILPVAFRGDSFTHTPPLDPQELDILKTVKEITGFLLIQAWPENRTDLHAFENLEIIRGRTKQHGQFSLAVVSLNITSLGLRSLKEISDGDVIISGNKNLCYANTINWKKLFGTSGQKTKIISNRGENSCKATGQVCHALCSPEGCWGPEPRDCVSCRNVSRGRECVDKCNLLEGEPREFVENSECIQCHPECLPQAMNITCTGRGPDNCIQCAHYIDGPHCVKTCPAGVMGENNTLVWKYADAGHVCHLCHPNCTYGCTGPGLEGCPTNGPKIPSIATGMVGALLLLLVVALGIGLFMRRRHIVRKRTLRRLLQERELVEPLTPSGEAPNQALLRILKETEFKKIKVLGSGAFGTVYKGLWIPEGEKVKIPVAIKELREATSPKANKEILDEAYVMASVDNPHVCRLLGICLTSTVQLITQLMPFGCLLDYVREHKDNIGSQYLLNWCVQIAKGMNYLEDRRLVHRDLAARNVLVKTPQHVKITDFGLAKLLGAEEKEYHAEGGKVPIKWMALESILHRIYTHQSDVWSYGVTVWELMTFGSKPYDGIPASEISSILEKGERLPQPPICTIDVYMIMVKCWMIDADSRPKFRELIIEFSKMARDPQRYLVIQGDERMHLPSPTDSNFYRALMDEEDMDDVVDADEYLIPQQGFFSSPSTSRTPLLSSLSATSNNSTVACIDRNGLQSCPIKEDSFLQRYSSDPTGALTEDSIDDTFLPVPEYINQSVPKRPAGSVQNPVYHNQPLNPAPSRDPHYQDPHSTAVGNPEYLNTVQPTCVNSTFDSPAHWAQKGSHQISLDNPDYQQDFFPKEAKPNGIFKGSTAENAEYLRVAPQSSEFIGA
Chain of Serine/threonine-protein kinase 17B (Homo sapiens) (O94768 whole entry, the tested form may be a part): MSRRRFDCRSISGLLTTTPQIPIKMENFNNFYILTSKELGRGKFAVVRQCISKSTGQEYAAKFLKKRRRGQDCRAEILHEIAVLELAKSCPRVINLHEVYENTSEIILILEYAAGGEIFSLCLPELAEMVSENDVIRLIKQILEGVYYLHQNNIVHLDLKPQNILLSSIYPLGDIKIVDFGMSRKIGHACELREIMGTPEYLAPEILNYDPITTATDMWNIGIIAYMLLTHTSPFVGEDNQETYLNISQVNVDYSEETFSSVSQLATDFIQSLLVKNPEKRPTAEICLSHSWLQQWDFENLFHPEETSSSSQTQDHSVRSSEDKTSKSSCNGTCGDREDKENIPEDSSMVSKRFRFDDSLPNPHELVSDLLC

## C=CS(=O)(=O)Nc1ccc(Cc2ccc3ccccc3c2)cc1
[1]
  inhibition: -4%
[2]
  inhibition: -6%
[3]
  inhibition: 6%
[4]
  inhibition: -7%
[5]
  inhibition: -1%
Homo sapiens [6]
  inhibition: 5%
[7]
  Activity: inactive
[8]
  inhibition: -8%
[9]
  inhibition: 5%
[10]
  Activity: Active
[11]
  inhibition: -3%
[12]
  inhibition: 13%
[13]
  inhibition: 10%
[14]
  inhibition: -2%
Saccharomyces cerevisiae
  inhibition: 5%
[15]
  inhibition: -8%
[16]
  inhibition: 17%
[17]
  inhibition: 0%
[18]
  inhibition: 18%
[19]
  inhibition: 2%
[20]
  inhibition: 5%
[21]
  inhibition: 13%
Homo sapiens [22]
  inhibition: 3%
[23]
  inhibition: 9%
